Test results published in the supplement of paper PMC4862054.

Tests used:
Conditions in all cases: incubation time: 72 h
Hs578T [1] = test: normalised viability (% of control), CellTiter-Blue; higher = more viable cells (100 = DMSO, 0 = benzethonium chloride kill control)
Procedure: (§1)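 DSRT, CellTiter-Blue viability, 72 h incubation. Signal is normalised to DMSO and benzethonium chloride controls. Value is the normalised response at dose 1.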

MFM-223 [2] = test: as above
Procedure: as §1

CAL-148 [3] = test: as above
Procedure: as §1

SK-BR-3 [4] = test: as above
Procedure: as §1

BT-474 [5] = test: as above
Procedure: as §1

HCC1143 [6] = test: as above
Procedure: as §1

MDA-MB-436 [7] = test: as above
Procedure: as §1

MDA-MB-231 [8] = test: as above
Procedure: as §1

BT-549 [9] = test: as above
Procedure: as §1

CAL-85-1 [10] = test: as above
Procedure: as §1

HCC1599 [11] = test: as above
Procedure: as §1

HDQ-P1 [12] = test: as above
Procedure: as §1

DU-4475 [13] = test: as above
Procedure: as §1

MDA-MB-453 [14] = test: as above
Procedure: as §1

CAL-51 [15] = test: as above
Procedure: as §1

CAL-120 [16] = test: as above
Procedure: as §1

HCC1937 [17] = test: as above
Procedure: as §1

MDA-MB-468 [18] = test: as above
Procedure: as §1

Hs578T [19] = test: normalised response (% of control), CellTiter-Glo; higher = more viable cells (100 = DMSO, 0 = benzethonium chloride kill control)
Summary of the method: (§2)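 Two readouts were taken after 72 h: CellTox Green fluorescence (485/520 nm) first, then CellTiter-Glo luminescence after 10 min at room temperature. Breast cancer cell lines had been seeded as 20 µl suspension into 384-well plates holding compound at 5 concentrations in 10-fold steps across a compound-specific 10,000-fold range. Each value is a normalised signal at a single concentration, with plates scaled to 0.1 % DMSO (100) and a positive kill control (0).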

MFM-223 [20] = test: as above
Summary of the method: as §2

CAL-148 [21] = test: as above
Summary of the method: as §2

SK-BR-3 [22] = test: as above
Summary of the method: as §2

BT-474 [23] = test: as above
Summary of the method: as §2

HCC1143 [24] = test: as above
Summary of the method: as §2

MCF-10A = test: as above
Summary of the method: as §2

MDA-MB-436 [25] = test: as above
Summary of the method: as §2

MDA-MB-231 [26] = test: as above
Summary of the method: as §2

BT-549 [27] = test: as above
Summary of the method: as §2

CAL-85-1 [28] = test: as above
Summary of the method: as §2

HCC1599 [29] = test: as above
Summary of the method: as §2

HDQ-P1 [30] = test: as above
Summary of the method: as §2

DU-4475 [31] = test: as above
Summary of the method: as §2

MDA-MB-453 [32] = test: as above
Summary of the method: as §2

CAL-51 [33] = test: as above
Summary of the method: as §2

CAL-120 [34] = test: as above
Summary of the method: as §2

HCC1937 [35] = test: as above
Summary of the method: as §2

MDA-MB-468 [36] = test: as above
Summary of the method: as §2

SMILES | normalised viability (Hs578T [1]) [%] | normalised viability (MFM-223 [2]) [%] | normalised viability (CAL-148 [3]) [%] | normalised viability (SK-BR-3 [4]) [%] | normalised viability (BT-474 [5]) [%] | normalised viability (HCC1143 [6]) [%] | normalised viability (MDA-MB-436 [7]) [%] | normalised viability (MDA-MB-231 [8]) [%] | normalised viability (BT-549 [9]) [%] | normalised viability (CAL-85-1 [10]) [%] | normalised viability (HCC1599 [11]) [%] | normalised viability (HDQ-P1 [12]) [%] | normalised viability (DU-4475 [13]) [%] | normalised viability (MDA-MB-453 [14]) [%] | normalised viability (CAL-51 [15]) [%] | normalised viability (CAL-120 [16]) [%] | normalised viability (HCC1937 [17]) [%] | normalised viability (MDA-MB-468 [18]) [%] | normalised response (Hs578T [19]) [%] | normalised response (MFM-223 [20]) [%] | normalised response (CAL-148 [21]) [%] | normalised response (SK-BR-3 [22]) [%] | normalised response (BT-474 [23]) [%] | normalised response (HCC1143 [24]) [%] | normalised response (MCF-10A) [%] | normalised response (MDA-MB-436 [25]) [%] | normalised response (MDA-MB-231 [26]) [%] | normalised response (BT-549 [27]) [%] | normalised response (CAL-85-1 [28]) [%] | normalised response (HCC1599 [29]) [%] | normalised response (HDQ-P1 [30]) [%] | normalised response (DU-4475 [31]) [%] | normalised response (MDA-MB-453 [32]) [%] | normalised response (CAL-51 [33]) [%] | normalised response (CAL-120 [34]) [%] | normalised response (HCC1937 [35]) [%] | normalised response (MDA-MB-468 [36]) [%]
Nc1nc(Cl)nc2c1ncn2[C@H]1C[C@H](O)[C@@H](CO)O1 [Cladribine] (0.1 nM) | 108 | 89.3 | 117 | 95.5 | 75.1 | 91.8 | 107 | 74.9 | 85.4 | 85.4 | 88.7 | 109 | 99.2 | 112 | 112 | 98.3 | 86.8 | 98.4 | 105 | 106 | 97.7 | 100 | 99.6 | 105 | 106 | 148 | 102 | 109 | 99.8 | 91.3 | 96.3 | 105 | 105 | 114 | 94.3 | 101 | 101
Nc1ccn([C@@H]2O[C@H](CO)[C@@H](O)[C@@H]2O)c(=O)n1 [Cytarabine] (1 nM) | 93.9 | 102 | 106 | 101 | 75.4 | 108 | 101 | 92.2 | 86.8 | 101 | 111 | 96.5 | 111 | 96.3 | 89.8 | 96.1 | 95.3 | 98.1 | 102 | 103 | 99.7 | 101 | 103 | 97.6 | 112 | 102 | 93.3 | 93.5 | 98.8 | 108 | 96.6 | 100 | 99.8 | 75.7 | 98.7 | 99.3 | 97.8
Cc1c2oc3c(C)ccc(C(=O)N[C@@H]4C(=O)N[C@H](C(C)C)C(=O)N5CCC[C@H]5C(=O)N(C)CC(=O)N(C)[C@@H](C(C)C)C(=O)O[C@@H]4C)c3nc-2c(C(=O)N[C@@H]2C(=O)N[C@H](C(C)C)C(=O)N3CCC[C@H]3C(=O)N(C)CC(=O)N(C)[C@@H](C(C)C)C(=O)O[C@@H]2C)c(N)c1=O [Dactinomycin] (0.1 nM) | 125 | 104 | 90.5 | 96 | 95.7 | 93.7 | 94.9 | 91.6 | 91.3 | 97.2 | 79.1 | 108 | 90.5 | 94.6 | 94 | 95.6 | 78.5 | 92.2 | 110 | 104 | 97.4 | 99 | 96 | 106 | 104 | 123 | 102 | 99.8 | 107 | 90.6 | 93.1 | 103 | 102 | 101 | 94.2 | 95.9 | 92.2
COc1cccc2c1C(=O)c1c(O)c3c(c(O)c1C2=O)C[C@@](O)(C(=O)CO)C[C@@H]3O[C@H]1C[C@H](N)[C@H](O)[C@H](C)O1 [Doxorubicin] (0.1 nM) | 110 | 95.6 | 97.8 | 90.3 | 79.6 | 91.2 | 112 | 96.8 | 95 | 84.6 | 82.8 | 98.5 | 102 | 102 | 102 | 86.9 | 86.4 | 104 | 101 | 104 | 103 | 107 | 107 | 102 | 98.8 | 101 | 105 | 105 | 105 | 119 | 102 | 104 | 120 | 99.3 | 100 | 101 | 103
Cc1ccc(F)c(NC(=O)Nc2ccc(-c3cccc4[nH]nc(N)c34)cc2)c1 [Linifanib] (0.1 nM) | 99.3 | 103 | 117 | 107 | 116 | 116 | 149 | 100 | 109 | 94.7 | 110 | 115 | 110 | 112 | 101 | 95.4 | 92.4 | 130 | 100 | 105 | 112 | 112 | 107 | 100 | 105 | 107 | 102 | 97 | 98.8 | 115 | 102 | 105 | 122 | 105 | 101 | 102 | 102
S=c1[nH]cnc2nc[nH]c12 [Mercaptopurine] (1 nM) | 130 | 95.9 | 116 | 104 | 105 | 97.6 | 80.8 | 103 | 107 | 84 | 97.3 | 106 | 101 | 105 | 104 | 96.6 | 93.6 | 98.7 | 103 | 97.3 | 91.3 | 95.7 | 90.2 | 97.8 | 95.3 | 97.2 | 98.2 | 108 | 96.9 | 98.9 | 108 | 92.4 | 109 | 122 | 99.5 | 99.8 | 90.8
Clc1ccc(C(c2ccccc2Cl)C(Cl)Cl)cc1 (stereo unspecified) [Mitotane] (1 nM) | 118 | 95.1 | 117 | 101 | 89.9 | 98 | 90.9 | 99 | 103 | 92.4 | 112 | 112 | 104 | 107 | 111 | 99.2 | 83.8 | 108 | 102 | 97.7 | 99.4 | 95.4 | 90.7 | 101 | 94.9 | 85.8 | 93.6 | 108 | 95.5 | 103 | 97.8 | 95.3 | 96 | 109 | 95.2 | 94.5 | 96.4
COc1cccc2cc(-c3nc([C@H]4CC[C@H](C(=O)O)CC4)n4ncnc(N)c34)[nH]c12 [OSI-027] (1 nM) | 118 | 95.9 | 96.1 | 86.9 | 85.3 | 105 | 93.8 | 83.6 | 93.9 | 100 | 110 | 76.9 | 87.8 | 88.8 | 90.3 | 96.8 | 88.9 | 90.7 | 97.9 | 90.5 | 98.7 | 91.1 | 95.8 | 92.8 | 91.4 | 86.8 | 93.9 | 95.5 | 101 | 101 | 96.3 | 91.7 | 95.4 | 88 | 102 | 97.1 | 90.1
